This is an account of results in patent publication US4088778A, “Method for the treatment of hypertension” (priority 1975, dated 1978).

Data set [1] is described as follows: Acute toxicity on rats. The following applies: for LD50: rats. It is filed as in vivo. The source says: (§1) Toxicities of TN and TA will now be described.
Data set [2] can be described thus: Acute toxicity on mice. The data set is classed as in vivo.
Excerpt: as §1

Data set [3] is described as follows: Subacute and chronic toxicities. It is filed as in vivo. The conditions noted are these: rats 100 to 1000 mg/Kg and beagles 100 mg/Kg daily, 3 or 6 months. As for the experimental part:
(B) Subacute and Chronic Toxicities:
TN and TA were separately administered to rats and beagles at daily doses of 100 to 1000 mg/Kg and 100 mg/Kg, respectively, continuously for 3 or 6 months.

Data set [4] in a line: Teratogenetic property test. The data set is classed as in vivo, pregnant mice or pregnant rats. The following applies: orally, 100 to 1200 mg/Kg. The source says: (C) Teratogenetic Property Test:
A short description of data set [5]: Hypotensive effect on experimental hypertension caused by DOCA. The data set is classed as in vivo, male wistar rats. As for the experimental part:
(A) Hypotensive effect on experimental hypertension caused by administration of desoxycorticosterone (hereinafter referred to as "DOCA"):
Right kidneys were removed from 6-week-old male wistar rats, and a 1% aqueous solution of sodium chloride was given as drinking water and 12.5 mg/Kg of DOCA was intramuscularly injected every week. The change of the blood pressure was examined over a period of 6 weeks.
48 rats, each having one kidney removed, were divided into 6 groups, each consisting of 8 rats, and each group was placed in a cage. With respect to each group, a gum arabic solution was administered to 2 rats as non-administered control animals. 20 mg/Kg of TN was administered once a day to each of two rats among the remaining 6 rats, and 100 mg/Kg of TN was administered once a day to each of two rats among the remaining 4 rats. 88 mg/Kg of TA was administered once a day to each of the remaining two rats. TN and TA were administered in the form of a suspension in gum arabic. The blood pressure was measured by a Shimazu type systolic pressure continuous recording apparatus detecting pulse waves of rats taken in a thermostat fixed box maintained at 30° C.

The nature of data set [6]: Experiment on young SHR (rats of spontaneous hypertension). The following applies: 88 mg/kg TA. It is filed as in vivo, rats (7-week-old female SHR). The method, then: Experiments were conducted by using two classes of rats of spontaneous hypertension (hereinafter referred to as "SHR"; provided by Nippon Rat K.K.) differing in the age. In the first experiment, 9-month-old chronic […] SHR (hereinafter referred to as "old SHR"), and in the second experiment, 7-week-old SHR in which hypertension was advancing (hereinafter referred to as "young SHR") was used.
(B) Experiment on Young SHR:
72 of 7-week-old female SHR (having a body weight of 130 to 175 g) were divided into 9 cages, each consisting of 8 rats. Service water was given as drinking water to rats of two cages among these 9 cages, and these rats were compared with other rats which were given a 1% aqueous solution of sodium chloride as drinking water. In each of the […] cages of rats to which the sodium chloride solution was given, no agent was administered to 2 of 8 rats, 20 mg/Kg of TN was administered to another 2 rats, 100 mg/Kg of TN was administered to still another 2 rats, and 88 mg/Kg of TA was administered to the remaining 2 rats.
After 2 weeks' feeding with the sodium chloride solution, administration was conducted once a day. Within 2 weeks from the start of administration,3 rats in the Control (non-administered) group, one rat in the 20 mg/Kg TN administered group, 3 rats in the 100 mg/Kg TN administered group, 3 rats in the 88 mg/Kg TA administered group and 4 rats in the service water given group were dead. In view of the body weight decrease and the snivel secretion and from the results of autopsy, it was judged that each of them died of pneumonia. The rats that died prior to initiation of the administration were not taken in account in evaluating the experimental results.

The conditions of data set [7]: cited from earlier work.

Where two headings read alike, the source gives them in different places.

As a reminder, the LD50 is the dose expected to kill half of the subjects tested. As for `CC(=O)Oc1c(C)c(C)c2c(c1C)CCC(C)(CCCC(C)CCCC(C)CCCC(C)C)O2` (racemic) [TA, dl-α-tocopheryl acetate], in data set [1] (mice and rats, maximum amount that can be administered), the “animals killed in acute toxicity test” value is “no test animal was killed”. Besides, the LD50 in data set [1] (rat, in vivo, im, I.M., male, read-out: LD50) is greater than 10000 mg/kg; in data set [1] (rat, in vivo, ip, I.P., male, read-out: LD50), greater than 2000 mg/kg; in data set [1] (rat, in vivo, iv, I.V., male, read-out: LD50), greater than 250 mg/kg; in data set [1] (rat, in vivo, po, P.O., male, read-out: LD50) it was greater than 15000 mg/kg; in data set [1] (rat, in vivo, sc, S.C., male, read-out: LD50) it was greater than 15000 mg/kg; in data set [1] (I.M., female) it was greater than 10000 mg/kg. The LD50 in data set [1] (I.V., female) was greater than 250 mg/kg; in data set [1] (P.O., female) it was greater than 15000 mg/kg; in data set [1] (S.C., female) it was greater than 15000 mg/kg; in data set [2] (I.M., female), greater than 15000 mg/kg; in data set [2] (I.V., female) it was greater than 1000 mg/kg; in data set [2] (P.O., female), greater than 20000 mg/kg. Besides, the 50% lethal dose (LD50) is greater than 20000 mg/kg in data set [2] (S.C., female); greater than 15000 mg/kg in data set [2] (mouse, in vivo, im, I.M., male, read-out: LD50); greater than 4000 mg/kg in data set [2] (mouse, in vivo, ip, I.P., male, read-out: LD50); greater than 1000 mg/kg in data set [2] (mouse, in vivo, iv, I.V., male, read-out: LD50); greater than 20000 mg/kg in data set [2] (mouse, in vivo, po, P.O., male, read-out: LD50); greater than 20000 mg/kg in data set [2] (mouse, in vivo, sc, S.C., male, read-out: LD50). Further, in data set [3], the deaths entry is reported as “no deaths”. In addition, in data set [3], the “haematological, haemetobiological and histological surveys” value is on record as “no manifestation of the toxicity was observed”. In data set [3], the “inhibition of the body weight” value is “inhibition of the body weight was not observed”. Besides, the “influences on mother animals, embryos and newborn babies” value in data set [4] is “no influences were observed”. Besides, the teratogenetic property entry in data set [4] is “no teratogenetic property”. Also, the “number of rats with blood pressure elevated to 170 mm Hg or higher” value in data set [5] (88 mg/kg of TA once a day, among 12 rats (control 9 among 11)) is listed as 4 rats. Moreover, in data set [5] (DOCA rats, old SHR, young SHR), the “hypotensive effect, overall conclusion from pharmacological tests on animals” value was “have a hypotensive effect”. The “dead rats within 6 weeks from the start of the administration” value in data set [6] (among 11 rats, control 5 among 11) was 3 rats. Further, the “dead rats within 2 weeks from the start of administration” value in data set [6] (judged pneumonia, control 3) is listed as 3 rats.

For `NNc1nncc2ccccc12` [Hydralazine], in data set [7] (prior art), the “effect on the heart” value was “increases the amount of blood fed to the heart and the pulse frequency and thus increases the load on the heart”; the hypotensive activity entry is given as “high hypotensive activity”; the undesirable side effects entry was “multiple arthritis resembling rheumatic arthritis and lupus erythematosus”.

For the compound `COC(=O)[C@H]1[C@H]2C[C@@H]3c4[nH]c5cc(OC)ccc5c4CCN3C[C@H]2C[C@@H](OC(=O)c2cc(OC)c(OC)c(OC)c2)[C@@H]1OC` [Reserpine], in data set [7] (prior art), the undesirable side effects result is “inhibition of the central nervous system, such as asthenic feeling”.

Consider `NS(=O)(=O)c1cc2c(cc1Cl)NCNS2(=O)=O` [hydrochlorothiazide], for which the undesirable side effects result in data set [7] (in vivo) was “hypokalemia, hypercirycemia and manifestation of latent diabetes”. Moreover, the hypotensive activity entry in data set [7] (prior art) is “moderate hypotensive activity”.

On to `C[C@](N)(Cc1ccc(O)c(O)c1)C(=O)O` [l-α-Methyl Dopa], for which, in data set [7] (prior art), the hypotensive activity result is on record as “high hypotensive activity”; the undesirable side effects entry is “mammary hypertrophy, paraesthesia, nightmare and Parkisonism”.

Turning to `CC(COc1ccccc1)N(CCCl)Cc1ccccc1` (stereo not shown) [phenoxybenzamine], the undesirable side effects entry in data set [7] (prior art) was “orthostatic hypotensive asthenia and tachycardia”.
